Results taken from US9730909B2, “Methods for targeting cancer stem cells” (BOSTON BIOMEDICAL, INC, priority 2010, dated 2017).
Values joined by “and” are separate entries in the source; they are usually repeats but may differ in a detail not shown here. Identical values can stand only once. “Also recorded” adds a separate entry of the source.

Key:
[1] = Phase I clinical trial: safety and tolerability; assay type: in vivo, human
From the text: Grade 3 or greater events include: fatigue and diarrhea.

[2] = Phase I clinical trial: plasma pharmacokinetics; assay type: in vivo, human
Procedure: A cycle consists of twice-daily oral administration of the compound for 4 weeks. Cycles were repeated every 4 weeks (28 days) until progression of disease, unacceptable toxicity, or another discontinuation criterion is met. The dose escalation trial was conducted as open label and multicenter trial. A modified Simon accelerated titration scheme was used for dose escalation.
The primary objective of the trial was to determine the safety, tolerability, and recommended phase II dose (RP2D). The secondary objectives of the trial were to determine the pharmacokinetic profile of the compound, pharmacodynamics of the compound, and preliminary antitumor activity of the compound.

[3] = system: cancer cells and normal cells; conditions: literature reports (Hirai 1999; Takano 2009); cited from earlier work
[4] = Toxicity (body weight, deaths) in xenograft-bearing immunosuppressed mice; assay type: in vivo; conditions: for mice died during the treatment: about 90% pure
Procedure: All regimens were administered daily (qd). Body weights were evaluated periodically during treatment. Each point represents the mean±SEM of eight tumors. […] All regimens were administered daily (qd). Body weights were evaluated periodically during treatment. Each point represents the mean±SEM of eight tumors.
(§1) Daily examinations into the health status of each animal were also conducted. Body weights were checked every three days. Food and water was supplied daily according to the animal husbandry procedures of the facility. Treatment producing >20% lethality and or >20% net body weight loss were considered toxic. Results are expressed as mean tumor volume (mm^3)±SE. P Values <0.05 are considered to be statistically relevant.

advanced cancers = assay: Progression free survival of patients; assay type: in vivo, human
From the text: FIG. 22 is a graph that illustrates the comparison of progression free survival of colorectal cancer patients treated with Compound 1. The progression free survival (PFS) of evaluable patients with colorectal cancer treated with Compound 1 was compared against historical PFS data for best supportive care in patients with colorectal cancer.
FIG. 23 is a graph that illustrates the comparison of progression free survival (PFS) versus pharmacokinetic exposure. The PFS of evaluable patients receiving Compound 1 was compared against Compound 1 exposure above or below 1.6 uM for at least 4 hours.

[5] = system: cancer cells and normal cells; assay: Exposure concentration/time and selective killing of cancer versus normal cells; assay type: cell-based
Procedure: The studies described herein discovered counter-intuitively that cancer cells and cancer stem cells requires much shorter exposure than normal cells to be killed by Compound 1. Normal cells can tolerate up to 24 hours of exposure to Compound 1. Furthermore, the studies here discovered that normal cells can recover after a short period of no-drug exposure, while cancer cells cannot recover once they are exposed to a certain concentration of the Compound 1 for at least 2 hours. Based on these studies, a special pharmacokinetic exposure [termed selective pharmacokinetic profile (SPP), or preferred pharmacokinetic profile (PPP), which is used interchangeably in this publication] was designed for Compound 1 using the data shown below in Table 14 for achieving selective antitumor activity in patients (FIG. 24).
The selective activity of Compound 1 in killing cancer cells and sparing normal cells is represented by the data in Table 14 and illustrated in FIG. 24.

advanced solid tumors = assay: Phase I clinical trial: tumor response (RECIST 1.1); assay type: in vivo, human
From the text: Of the 42 patients dosed, 24 were evaluable for tumor response as of Feb. 7, 2011; 16 (16/24 evaluable patients) achieved stable disease (8 to 75+ weeks).

[6] = Concentration in patient urine; assay type: in vivo, human; conditions: patient 0001, 20 mg daily administration
[7] = system: FaDu human head and neck cancer; assay: Subcutaneous FaDu human head and neck cancer xenograft in immunosuppressed mice; assay type: in vivo
Procedure: In the studies shown in FIG. 8, immunosuppressed mice with established subcutaneous FaDu human head and neck cancer were given indicated amount of hand grounded Compound 1 with Crystal Form 1, or vehicle control orally (po). Compound 1 was formulated in […]™. All regimens were administered daily (qd). Tumor sizes were evaluated periodically during treatment.
In the study shown in FIG. 9, immunosuppressed mice with established subcutaneous FaDu human head and neck cancer were given 100 mg/kg of micronized Compound 1 produced with the synthetic process described in FIGS. 5A and 5B (first crop), or vehicle control orally (po). Compound 1 was formulated in […]™. All regimens were administered daily (qd). Tumor sizes were evaluated periodically during treatment. Form 2 has been successfully manufactured by a current good manufacturing practice (cGMP) process and received approval from the FDA and Health Canada to be used in clinical trials.
Form 3 can only be generated from Form 1 using a specially designed slurry process described herein. […] In the study shown in FIG. 10, immunosuppressed mice with established subcutaneous FaDu human head and neck cancer were given 200 mg/kg of Compound 1 with hand grounded Crystal Form 1 or Form 3, or vehicle control orally (po). Compound 1 was formulated in gelucire. All regimens were administered daily (qd). Tumor sizes were evaluated periodically during treatment. This polymorph has been successfully manufactured by a cGMP process and received approval from FDA and Health Canada to be used in clinical trials.
The anti-tumor activity of particles of Compound 1 with different particle size ranges is illustrated in FIG. 15, and the pharmacokinetic data for particles of Compound 1 with different particle size ranges is illustrated in FIGS. 16-18. In the study shown in FIG. 15, immunosuppressed mice with established subcutaneous FaDu human head and neck cancer were given indicated amount of Compound 1 with indicated particle size, or vehicle control orally (po). All regimens were administered daily (qd). Tumor size was evaluated periodically.
In an experiment, a formulation of Compound 1 particles sieved to 160 micron was tested in the model of immunosuppressed mice with established subcutaneous xenograft FaDu human head and neck cancer. The pharmaceutical composition was formulated as 80 mg/ml in 9% Gelucire, 20% Vitamin E TPGS (Table 3). […] All regimens were administered daily (qd).
In an experiment, Compound 1 crystals were milled to a median particle size of about 20 micron. […] All regimens were administered daily (qd).
FaDu human head and neck cancer cells were inoculated subcutaneously into female athymic nude mice (6×10^6 cells/mouse) and allowed to form palpable tumors. When the tumors reached approximately 100 mm^3, the animals were treated orally (po) with Compound 1 at 100 mg/kg or vehicle control daily. Compound 1 was formulated at 10 mg/ml in 20% gelucire. Tumors and bodyweights were measured throughout treatment (FIG. 15).
as §1
Male or female athymic nude mice 4-5 weeks (Charles River Laboratories, Wilmington, Mass.), were acclimated to the animal housing facility for at least 1 week before study initiation. […]

[8] = Pharmacokinetics in mice of 2, 20, 150 micron particle size formulations; assay type: in vivo; conditions: particle size 125-150 micron vs 2 and 20 micron, 100 mg/kg oral, 20% Gelucire 44/14, 1% Tween 80
Procedure: In an experiment, micronized Compound 1 prepared in step 6 of Example 2 with a mean particle size of 2 micron, 20 microns, 150 microns were formulated as suspensions in 20% Gelucire 44/14 and 1% Tween 80 and administered orally to mice at 100 mg/kg. Each time point represents the average of 3 mice (FIG. 16).

[9] = particle size less than 5 micron
[10] = crystal form used in clinical trials

Structure (SMILES): CC(=O)c1cc2c(o1)C(=O)c1ccccc1C2=O [Compound 1, 2-acetylnaphtho[2,3-b]furan-4,9-dione]
- maximum tolerated dose (MTD) ([1]; dose escalated from 20 mg to 2000 mg/day): not reached; also recorded: neither MTD nor RP2D has been reached
- Urine Color Change, # of Events ([1]; human, in vivo): 2
- Urine Color Change, % of Total ([1]; human, in vivo): 2.5%
- Urine Color Change, # of Events ([1]; human, in vivo, 4 weeks): 0
- time plasma concentration was sustained ([2]; 320 mg/day dose level, at a concentration of at least 1.5 μM): over 8 hours
- clearance from the blood ([2]; human, in vivo, 20 mg): rapidly cleared from the blood
- AUC0-24 ([2]; human, in vivo, 320 mg): 29.79 µM·h
- AUC0-24 ([2]; human, in vivo, 800 mg): 26.43 µM·h
- AUC0-24 ([2]; human, in vivo, 1400 mg): 28.38 µM·h
- toxicity to cancer cells versus normal cells [3]: equally toxic to cancer cells and normal cells
- toxicity ([4]; about 90% pure Compound 1, GELUCIRE, po, qd): Significant toxicity
- mice died during the treatment ([4]; mice with FaDu human head and neck cancer (first experiment)): 4
- mice died during the treatment ([4]; mice with MDA-231 human breast cancer (second experiment)): 3
- tolerability ([4]; higher purity (about 95% or greater), mice with FaDu or MDA-231 xenografts, po, qd): well-tolerated and showed no signs of toxicity
- progression free survival (advanced cancers; blood drug concentration above 1 uM, patients with diverse cancers): increase in progression free survival
- progression free survival (PFS) (advanced cancers; patients with advanced colorectal cancer refractory to chemotherapy): Prolongation of progression free survival
- progression free survival (advanced cancers; patients with exposure above 1.6 uM for at least 4 hours): improvement in progression free survival
- exposure time tolerated by normal cells [5]: up to 24 hours
- selectivity of killing ([5]; about or above 0.2 and 30 μM for about 4 hours up to about 24 hours): selective killing of cancer cells and sparing of normal cells
- antitumor activity in a colon cancer lesion in kidney (advanced solid tumors; 20 mg QD): signs of potent antitumor activity
- evaluable patients showing no metastatic tumors (advanced solid tumors; 24 evaluable patients with advanced refractory cancers): over 80%
- response of colon cancer metastatic lesion to kidney (advanced solid tumors; patient 0001, 20 mg daily): complete regression
- Best Response, remark (CA 125) (advanced solid tumors; patient 0014, total daily dose 400 mg bid, Ovarian cancer): CA 125 normalization
- Best Response, remark (CEA) (advanced solid tumors; patient 0015, total daily dose 400 mg bid, Colon adenocarcinoma): CEA ? >30-50%
- evaluable patients showing SD/MR by RECIST 1.1 (advanced solid tumors; tumors refractory to chemotherapies): 16/24 and 16 out of 24
- concentration of the compound in urine [6]: high concentration
- efficacy ([7]; median particle size about 20 micron, 200 mg/kg oral daily): weak or moderate efficacy
- anti-tumor activity ([7]; nanoparticles, D50 about 100 nanometers): reduction of anti-tumor activity
- efficacy ([7]; particle size greater than 20 micron): no or weak efficacy
- anti-tumor activity [7, 9]: potent anti-tumor activity
- toxicity [7, 9]: no observed toxicity
- plasma exposure [8]: lower level of exposure

Structure (SMILES): CC(=O)c1cc2c(o1)C(=O)c1ccccc1C2=O [Crystal Form 1, 2-acetyl-4H, 9H-naphtho[2,3-b]furan-4,9-dione]
- anti-tumor activity ([7]; hand grounded Crystal Form 1 in GELUCIRE, po, qd): limited anti-tumor activity; also recorded: low anti-tumor activity

Structure (SMILES): CC(=O)c1cc2c(o1)C(=O)c1ccccc1C2=O [Crystal Form 2, 2-acetyl-4H, 9H-naphtho[2,3-b]furan-4,9-dione]
- pharmacokinetics in cancer patients [2, 10]: desirable pharmacokinetics
- anti-tumor activity in cancer patients (advanced solid tumors; [10]): strong signs of anti-tumor activity
- anti-tumor activity ([7]; 100 mg/kg micronized (first crop, process of FIGS. 5A-5B) in GELUCIRE, po, qd): potent anti-tumor activity

Structure (SMILES): CC(=O)c1cc2c(o1)C(=O)c1ccccc1C2=O [Crystal Form 3, 2-acetyl-4H, 9H-naphtho[2,3-b]furan-4,9-dione]
- antitumor activity ([7]; 200 mg/kg hand grounded, in gelucire, po, qd): potent antitumor activities
